From publication PMC8808744 (ACS chemical biology, 2019)
≈ marks a conversion by molar mass, not a printed value.

What was measured:
SltB1 = SltB1 (Pseudomonas aeruginosa, UniProt Q9HX24); test: biochemical; assay type: binding
Ec MltGsol = Ec MltGsol (Escherichia coli, UniProt P28306); test: Dissociation constant by non-denaturing mass spectrometry, E. coli MltGsol; assay type: binding
MltDsol = MltDsol (Pseudomonas aeruginosa, UniProt Q9I2T2); test: biochemical; assay type: binding
Slt = Slt (Pseudomonas aeruginosa, UniProt Q9HZI6); test: biochemical; assay type: binding
Sequence of Slt (Q9HZI6 25-642 limits assumed): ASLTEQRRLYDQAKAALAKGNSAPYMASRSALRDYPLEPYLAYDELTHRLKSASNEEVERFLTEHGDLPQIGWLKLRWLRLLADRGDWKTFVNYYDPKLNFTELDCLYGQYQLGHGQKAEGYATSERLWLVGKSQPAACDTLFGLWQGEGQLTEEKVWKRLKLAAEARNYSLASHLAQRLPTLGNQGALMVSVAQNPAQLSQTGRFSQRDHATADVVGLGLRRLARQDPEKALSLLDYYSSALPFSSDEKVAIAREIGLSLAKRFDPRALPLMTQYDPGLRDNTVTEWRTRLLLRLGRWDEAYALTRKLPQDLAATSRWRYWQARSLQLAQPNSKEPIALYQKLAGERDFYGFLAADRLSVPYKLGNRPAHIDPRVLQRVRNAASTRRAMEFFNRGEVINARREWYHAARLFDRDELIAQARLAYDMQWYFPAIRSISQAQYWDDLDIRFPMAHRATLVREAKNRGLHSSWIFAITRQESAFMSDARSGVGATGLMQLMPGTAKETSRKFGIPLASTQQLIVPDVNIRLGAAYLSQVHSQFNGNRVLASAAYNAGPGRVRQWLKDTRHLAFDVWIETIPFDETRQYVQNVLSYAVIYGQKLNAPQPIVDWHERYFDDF

P. aeruginosa PAO1 [1] = assay type: cell-based, Pseudomonas aeruginosa
P. aeruginosa PAO1 [2] = test: MIC against parent strain PAO1; assay type: cell-based; conditions: Pseudomonas aeruginosa
[3] = test system: wild-type P. aeruginosa PAO1; test: Growth-curve assay in liquid medium; assay type: cell-based, Pseudomonas aeruginosa; conditions: CAZ at 0.28 μg mL^−1, MEM at 0.14 μg mL^−1 (sub-MIC)

Sequence of Ec MltGsol (P28306 25-340 with tags or gaps limits assumed): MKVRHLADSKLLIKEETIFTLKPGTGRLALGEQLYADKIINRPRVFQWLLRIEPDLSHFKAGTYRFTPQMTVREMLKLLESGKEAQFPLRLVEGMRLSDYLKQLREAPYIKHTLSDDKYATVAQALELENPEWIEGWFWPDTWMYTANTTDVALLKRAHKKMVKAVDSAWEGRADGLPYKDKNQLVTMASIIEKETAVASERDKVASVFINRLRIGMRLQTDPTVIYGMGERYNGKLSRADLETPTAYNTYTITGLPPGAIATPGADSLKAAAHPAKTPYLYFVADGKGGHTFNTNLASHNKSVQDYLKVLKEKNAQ
Sequence of SltB1 (Q9HX24 34-340 limits assumed): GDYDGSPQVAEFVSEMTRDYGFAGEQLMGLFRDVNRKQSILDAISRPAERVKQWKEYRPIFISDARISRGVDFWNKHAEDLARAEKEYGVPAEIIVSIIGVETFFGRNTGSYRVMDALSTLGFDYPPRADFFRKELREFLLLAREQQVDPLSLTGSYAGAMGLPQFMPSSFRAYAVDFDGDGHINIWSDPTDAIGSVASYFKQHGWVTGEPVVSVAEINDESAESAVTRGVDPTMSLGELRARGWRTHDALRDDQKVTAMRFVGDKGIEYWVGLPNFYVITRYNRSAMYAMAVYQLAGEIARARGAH
Sequence of MltDsol (Q9I2T2 32-534 limits assumed): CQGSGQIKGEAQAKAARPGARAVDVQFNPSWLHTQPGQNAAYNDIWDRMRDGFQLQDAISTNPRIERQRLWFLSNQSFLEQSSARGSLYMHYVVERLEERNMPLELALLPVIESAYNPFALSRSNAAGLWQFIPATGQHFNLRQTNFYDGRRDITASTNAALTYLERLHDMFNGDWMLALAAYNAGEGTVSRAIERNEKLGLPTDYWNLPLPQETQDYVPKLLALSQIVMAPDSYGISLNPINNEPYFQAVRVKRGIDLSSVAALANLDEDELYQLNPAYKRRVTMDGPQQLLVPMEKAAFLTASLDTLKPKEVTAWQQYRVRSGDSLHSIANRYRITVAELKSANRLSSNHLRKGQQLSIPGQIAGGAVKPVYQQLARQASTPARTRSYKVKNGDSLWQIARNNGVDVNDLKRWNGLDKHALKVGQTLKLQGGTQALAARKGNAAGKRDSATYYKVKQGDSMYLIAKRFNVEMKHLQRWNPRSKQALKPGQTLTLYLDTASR

Row | SMILES | Kd (SltB1) [µM] | Kd (Ec MltGsol) [µM] | Kd (MltDsol) [µM] | Kd (Slt) [µM] | recovery of CAZ/bulgecin A-damaged bacteria (P. aeruginosa PAO1 [1]) | MIC (P. aeruginosa PAO1 [2]) [mg/L] | growth of wild-type PAO1 with β-lactam alone [3]
1 | CC(=O)N[C@H]1[C@H](O[C@H]2C[C@@H](C(=O)NCCS(=O)(=O)O)N[C@@H]2CO)O[C@H](CO)[C@@H](OS(=O)(=O)O)[C@@H]1O [Bulgecin A] | 160 ± 21 | 24 ± 5.1 | 1.4 ± 0.3 | 8.5 ± 1.1 | delayed recovery |  | 
2 | CC(C)(O/N=C(\C(=O)N[C@@H]1C(=O)N2C(C(=O)[O-])=C(C[n+]3ccccc3)CS[C@H]12)c1csc(N)n1)C(=O)O [CAZ, Ceftazidime] |  |  |  |  |  | 0.5 (≈ 0.915 µM) | normal growth
3 | C[C@@H](O)[C@H]1C(=O)N2C(C(=O)O)=C(S[C@@H]3CN[C@H](C(=O)N(C)C)C3)[C@H](C)[C@H]12 [MEM, Meropenem] |  |  |  |  |  | 0.5 (≈ 1.3 µM) | normal growth
